We go through 10 compounds from patent publication EP1021178B1, “SELENOPHENE ANTI-TUMOR AGENTS” (Purdue Research Foundation, priority 1996, dated 1997).

Experiment [1] concerns NCI-H226. Nature of the experiment: NCI human tumor cell panel. The note with it: for CC50: NCI-H226, read-out: Log10 LC50 (converted).
Experiment [2] deals with TK-10. Nature of the experiment: NCI human tumor cell panel. To be noted: for CC50: TK-10, read-out: Log10 LC50 (converted).
For experiment [3], the system named is T-47D. Nature of the experiment: NCI human tumor cell panel. In kind it is cell-based. To be noted: T47D, read-out: Log10 LC50 (converted).
In experiment [4] the test system is MDA-MB-231/ATCC. Nature of the experiment: NCI human tumor cell panel. In kind it is cell-based.
The subject of experiment [5] is CAKI-1. Nature of the experiment: NCI human tumor cell panel. In kind it is cell-based. The note with it: CAKI-1, read-out: Log10 LC50 (converted).
In experiment [6] the test system is UACC-257. Nature of the experiment: NCI human tumor cell panel. In kind it is cell-based. To be noted: UACC-257, read-out: Log10 LC50 (converted).
Experiment [7] has as its system SF-295. Nature of the experiment: NCI human tumor cell panel. To be noted: for CC50: SF-295, read-out: Log10 LC50 (converted).
The test system of experiment [8] is MALME-3M. Nature of the experiment: NCI human tumor cell panel. To be noted: read-out: Log10 LC50 (converted).
The subject of experiment [9] is human tumor cell line panels. Nature of the experiment: NCI human tumor cell panel, whole-panel summary (mean graph) and lines without a row head. The note with it: for Log10 TGI, Delta / Log10 TGI, Range / Log10 LC50, Delta: whole panel.
In experiment [10] the test system is NCI-H23. Nature of the experiment: NCI human tumor cell panel. The note with it: for CC50: NCI-H23, read-out: Log10 LC50 (converted); for IC (TGI): NCI-H23, read-out: Log10 TGI.
The test system of experiment [11] is SNB-19. Nature of the experiment: NCI human tumor cell panel. To be noted: for CC50: SNB-19, read-out: Log10 LC50 (converted).
Experiment [12] concerns SK-OV-3. Nature of the experiment: NCI human tumor cell panel. The note with it: for CC50: SK-OV-3, read-out: Log10 LC50 (converted).
Experiment [13] relates to HT29. Nature of the experiment: NCI human tumor cell panel. To be noted: HT-29, read-out: Log10 LC50 (converted).
The subject of experiment [14] is COLO 205. Nature of the experiment: NCI human tumor cell panel. To be noted: COLO 205, read-out: Log10 LC50 (converted).
The subject of experiment [15] is UO-31. Nature of the experiment: NCI human tumor cell panel. The note with it: UO-31, read-out: Log10 LC50 (converted).
Experiment [16] has as its system SF-268. Nature of the experiment: NCI human tumor cell panel. In kind it is cell-based. The note with it: SF-268, read-out: Log10 LC50 (converted).
The test system of experiment [17] is HL-60(TB). Nature of the experiment: NCI human tumor cell panel. To be noted: HL-60, read-out: Log10 LC50 (converted).
The subject of experiment [18] is RXF-393. Nature of the experiment: NCI human tumor cell panel. In kind it is cell-based. The note with it: RXF 393, read-out: Log10 LC50 (converted).
The mark [19] stands for this setting: MDA-MB-231, read-out: Log10 LC50, Breast Cancer (converted), MDA-MB-231/ATCC.
Setting [20] is: Homo sapiens, read-out: Log10 TGI.
Setting [21] is: MDA-MB-231, read-out: Log10 LC50, MDA-MB-231/ATCC (converted).
The mark [22] stands for this setting: Homo sapiens, read-out: Log10 GI50, Delta, Delta, whole panel (converted).

Read-outs that look alike come from different tables or passages of the source.

What is called LC50 is the concentration lethal to half of the exposed cells or organisms. On to `O=Cc1ccc(-c2ccc(-c3ccc(C=O)[se]3)s2)s1`, for which the CC50 in experiment [1] is > 100 µM; in experiment [2], 61.7 µM; in experiment [3], > 100 µM; in [4] (setting [19]), > 100 µM; in experiment [6] it was > 100 µM; in experiment [7], > 100 µM. For the same compound, the CC50 is > 100 µM in [8]; > 100 µM in [10]; > 100 µM in [11]; > 100 µM in experiment [12]; > 100 µM in experiment [13]; 91.2 µM in experiment [14]. In addition, in experiment [15], the CC50 is > 100 µM. Further, the IC (TGI) was > 100 µM in experiment [1] (NCI-H226, read-out: Log10 TGI); > 100 µM in [7] (SF-295, read-out: Log10 TGI); 44.7 µM in experiment [9] (setting [20]); > 100 µM in [10]; > 100 µM in experiment [11] (SNB-19, read-out: Log10 TGI). The LC50 in [5] is 29.5 µM.

With `OCc1ccc(-c2ccc(-c3ccc(CO)[se]3)s2)s1`, the CC50 in experiment [2] is 64.6 µM; in experiment [4] (setting [19]), 97.7 µM; in experiment [6], 0.24 µM; in [7], > 100 µM; in [8] it was > 100 µM; in experiment [10], > 100 µM. Moreover, the CC50 is > 100 µM in [11]; 51.3 µM in [12]; > 100 µM in [13]; 61.7 µM in [14]; > 100 µM in experiment [15].

For `OCc1ccc(-c2ccc(-c3ccc[se]3)[se]2)[se]1`, the CC50 in experiment [2] is > 100 µM; in [3], 44.7 µM; in experiment [4] (setting [19]) it was > 100 µM; in experiment [17] it was > 100 µM; in experiment [7], 72.4 µM; in experiment [8] it was 50.1 µM. Moreover, the CC50 in [10] was 70.8 µM; in experiment [11] it was > 100 µM; in [13], 58.9 µM; in [14], > 100 µM; in experiment [15], > 100 µM. Besides, the LC50 (concentration killing 50% of cells) in experiment [16] is > 100 µM. Besides, the LC50 in [5] is 51.3 µM. For the same compound, in experiment [10], the IC (TGI) is 30.9 µM.

For the compound `OCc1ccc(-c2ccc(-c3ccc(CO)[se]3)[se]2)[se]1`, the CC50 was 9.12 µM in [1]; 15.8 µM in experiment [2]; 31.6 µM in [6]; 8.71 µM in experiment [18]; 70.8 µM in [7]; 56.2 µM in experiment [8]. The CC50 in experiment [10] is 95.5 µM; in experiment [11] it was 91.2 µM; in experiment [13] it was 66.1 µM; in experiment [14] it was 17.8 µM; in experiment [15] it was 38.9 µM. Further, the IC (TGI) in [2] (TK-10, read-out: Log10 TGI) is 0.661 µM; in [9] (setting [20]) it was 10.5 µM. The LC50 (concentration killing 50% of cells) in experiment [16] is 20.9 µM. Further, the LC50 in [5] is 13.2 µM.

As for `OCc1ccc(-c2ccc(-c3ccc(CO)s3)[se]2)s1`, the CC50 in [1], in experiment [2], in [3], in experiment [4] (setting [19]), in experiment [18] and in experiment [17] was > 100 µM in each case. In addition, the CC50 in [7], in experiment [8], in experiment [10], in [11], in [12] and in experiment [13] was > 100 µM in each case. The CC50 in [14] is 22.9 µM; in [15] it was > 100 µM. Further, in experiment [16], the LC50 (concentration killing 50% of cells) was > 100 µM. Further, the LC50 in experiment [5] is > 100 µM. Besides, the IC (TGI) in experiment [12] (SK-OV-3, read-out: Log10 TGI) was > 100 µM.

On to `OCc1ccc(-c2ccc(-c3ccc(CO)[se]3)s2)[se]1`, for which the CC50 in experiment [1], in experiment [2], in [4] (setting [19]), in experiment [18], in [17] and in experiment [7] was > 100 µM each time. Moreover, the CC50 in experiment [8], in [10], in [11], in experiment [13] and in experiment [15] was > 100 µM in each case. Moreover, in [16], the LC50 (concentration killing 50% of cells) was > 100 µM. Further, in experiment [5], the LC50 was > 100 µM.

Take `OCc1ccc(-c2ccc(-c3cccs3)[se]2)s1`: the CC50 is 0.224 µM in experiment [1]; > 100 µM in experiment [2]; > 100 µM in [3]; > 100 µM in experiment [4] (setting [21]); 0.0525 µM in experiment [6]; > 100 µM in [18]. In addition, the CC50 in experiment [17] is > 100 µM; in experiment [7], > 100 µM; in experiment [8], > 100 µM; in [9] (Homo sapiens, read-out: Log10 LC50, MG_MID (converted)), 61.7 µM; in [10], > 100 µM; in [11], > 100 µM. Besides, the CC50 in [12], in experiment [13] and in [15] was > 100 µM in each case. Further, in experiment [16], the LC50 (concentration killing 50% of cells) was > 100 µM. Also, in experiment [9], the “Log10 TGI, Delta” value is 3.46. Moreover, the GI50 in experiment [9] (Homo sapiens, read-out: Log10 GI50, MG_MID (converted)) was 5.25 µM. Further, the IC (TGI) in [9] (Homo sapiens, read-out: Log10 TGI, MG_MID) is 28.8 µM. In addition, in experiment [9], the “Log10 TGI, Range” value amounted to 4.00.

Take `O=Cc1ccc(-c2ccc(-c3ccc(C=O)[se]3)[se]2)[se]1`: the CC50 in experiment [1], in experiment [2], in [3], in experiment [4] (setting [21]), in experiment [6] and in experiment [18] was > 100 µM throughout. In addition, the CC50 in [17], in [7], in experiment [8], in [10], in [11] and in [13] was > 100 µM in each case. Moreover, the CC50 in [14] and in [15] was > 100 µM throughout. The LC50 (concentration killing 50% of cells) in [16] was > 100 µM. The LC50 in experiment [5] was > 100 µM. In experiment [9], the “Log10 LC50, Delta” value is -4.02. Also, the “Log10 TGI, Delta” value in experiment [9] is listed as -4.18. For the same compound, the GI50 in experiment [9] (setting [22]) is 21.4 µM. Further, the “Log10 TGI, Range” value in experiment [9] was 1.91.

In the case of `O=Cc1ccc(-c2ccc(-c3ccc[se]3)[se]2)[se]1`, the CC50 in [1] was 38.9 µM; in experiment [2] it was 25.1 µM; in [3], 47.9 µM; in [6] it was 33.1 µM; in [18], > 100 µM; in experiment [17], > 100 µM. Moreover, the CC50 in experiment [7] was 53.7 µM; in [8], 64.6 µM; in experiment [10], 69.2 µM; in [11], 87.1 µM; in [13], 36.3 µM; in experiment [14], 34.7 µM. In addition, the CC50 in experiment [15] was 53.7 µM. In [16], the LC50 (concentration killing 50% of cells) was > 100 µM. Also, the median lethal concentration (LC50) in [5] was 14.5 µM. For the same compound, the “Log10 LC50, Delta” value in experiment [9] is on record as -4.25. For the same compound, in [9], the “Log10 TGI, Delta” value is recorded as -4.78. Besides, in experiment [9] (setting [22]), the GI50 is 3.72 µM. Moreover, the “Log10 TGI, Range” value in experiment [9] is 1.37.

Turning to `O=Cc1ccc(-c2ccc(-c3cccs3)[se]2)s1`, the CC50 in experiment [1] was 1.05 µM; in experiment [2], 53.7 µM; in experiment [3], 91.2 µM; in [6] it was 0.309 µM; in [18], > 100 µM; in experiment [17], > 100 µM. For the same compound, the CC50 in experiment [7], in experiment [8], in [10], in [11], in experiment [12] and in experiment [13] was > 100 µM in each case. The CC50 in [14] and in experiment [15] was > 100 µM in each case. Moreover, the LC50 (concentration killing 50% of cells) in [16] is > 100 µM. For the same compound, the “Log10 LC50, Delta” value in [9] is -4.13. Also, the “Log10 TGI, Delta” value in experiment [9] is recorded as -4.42. Besides, the GI50 in experiment [9] (setting [22]) was 6.76 µM. Further, the “Log10 TGI, Range” value in [9] is on record as 3.13.
